Tested on: MPM explants
Test: Dynamic single-cell RNA sequencing of MPM explants
Format: cell-based, human
Method: Dynamic single-cell RNA sequencing and data analysis. The previous protocol (Sehgal et al., J. Clin. Invest. 131:e135038 (2021)) was adapted to test S1 explants from MPM PDOTS. […] After 24 hours of treatment in a ULA dish, tumor spheroids were digested with trypsin in a 37° C. incubator for 5 minutes to obtain single-cell suspensions. Cells were loaded onto a 10× chromium instrument (10× Genomics) per manufacturer's instructions. ScRNA libraries were generated using the single cell 3′ reagent kit (10× Genomics) per the user guide. Quality control of the completed libraries was performed using a bioanalyzer high sensitivity DNA kit (Agilent) and then sequenced using the Illumina NextSeq 500 platform.
Raw sequencing reads were processed using the 10× Genomics CellRanger bioinformatics pipeline v6.0.1. The assembled matrix was then fed into the standard workflow of the R package, Seurat v4.0.4. Genes that were expressed in at least 3 cells, and only cells that expressed at least […], were kept for downstream processing. Additionally, cells expressing more than 7000 genes and cells with more than 10% of UMIs mapping to mitochondrial genes were removed from the analysis. All the samples were prepared and sequenced together on the same platform. The filtered matrix was log-normalized using global scaling in Seurat. UMI and mitochondrial transcript content were used as regression parameters. The normalized matrix was scaled and centered gene-wise, and then underwent dimensionality reduction using principal component analysis (PCA) on the highly varying genes. After visual inspection of the PCA elbow plot, the top 10 PCs were chosen for further analysis. Clustering was performed on the chosen PCs using the shared nearest neighbor algorithm in Seurat with default parameters.
A Uniform Manifold Approximation and Projection (UMAP) map was computed and plotted with the DimPlot module of Seurat. Cluster differential expression analysis was performed in Seurat using the FindMarkers command using the Wilcoxon rank sum test without thresholds. Contour plots overlayed onto UMAPs were generated with R package ggplot2 (Wickham, Springer-Verlag New York (2016)).
Cell types were identified based on comparative analysis of the signatures published previously (Han et al., Cell 172:1091-1107 (2018); Muhl et al., Nat. Commun. 11:3953 (2020); Correia et al., Proc. Natl. Acad. Sci. U.S.A. 115:E5980-E5989 (2018); Gueugnon et al., Am. J. Pathol. 178:1033-42 (2011)), as well as marker genes identified in this study, which were used to remove genes ubiquitously expressed across cell subpopulations. Collagen-encoding genes were added to the fibroblast signature.

## Nc1ncnc2c1ncn2[C@@H]1O[C@@H]2COP(=O)([S-])O[C@@H]3[C@H](O)[C@@H](COP([O-])(=S)O[C@H]2[C@H]1O)O[C@H]3n1cnc2c(N)ncnc21.[Na+].[Na+] (stereo partly drawn) [ADU-S100]
10 μM ADU-S100
  BST2 avg log2FC: 2.86
  C15orf48 avg log2FC: 3.02
  CCL5 avg log2FC: 2.10
  CMPK2 avg log2FC: 2.19
  CXCL1 avg log2FC: 2.20
  CXCL10 avg log2FC: 3.10
  CXCL11 avg log2FC: 2.45
  HES4 avg log2FC: 2.07
  HLA-B avg log2FC: 2.09
  HLA-C avg log2FC: 2.08
  IFI6 avg log2FC: 4.76
  IFI27 avg log2FC: 4.89
  IFI30 avg log2FC: 2.24
  IFI35 avg log2FC: 2.69
  IFIT1 avg log2FC: 3.89
  IFIT2 avg log2FC: 3.99
  IFIT3 avg log2FC: 4.01
  IFITM1 avg log2FC: 3.42
  IL1B avg log2FC: 2.23
  IL1RN avg log2FC: 2.21
  IL32 avg log2FC: 3.43
  IRF7 avg log2FC: 2.44
  ISG15 avg log2FC: 5.19
  ISG20 avg log2FC: 3.89
  LAP3 avg log2FC: 2.78
  LY6E avg log2FC: 3.24
  MDK avg log2FC: 2.01
  MX1 avg log2FC: 2.84
  OAS1 avg log2FC: 3.40
  OAS3 avg log2FC: 2.02
  OASL avg log2FC: 3.01
  PLAAT4 avg log2FC: 2.38
  PLSCR1 avg log2FC: 2.64
  RSAD2 avg log2FC: 4.43
  SAA1 avg log2FC: 2.46
  STAT1 avg log2FC: 2.09
  TFPI2 avg log2FC: 2.88
  TNFSF13B avg log2FC: 2.03
  WARS avg log2FC: 3.24
  WFDC2 avg log2FC: 2.06
24 hours
  IL-33 expression in CAFs: potent and unique STING agonist induction
24 hours, primarily MSLN positive tumor cells (cluster 1) and CAFs (clusters 4, 5)
  CXCR3 ligand expression (CXCL9, CXCL10, CXCL11): strongly induced
MPM cluster 1 relative to clusters 0, 3
  TGFB1 expression: downregulated
NK cell activating ligand
  NECTIN2 (CD112) expression in tumor cells: increased
NK cell inhibitory ligands
  HLA-A/B/C expression in tumor cells: dose-dependent increases
STING agonist treatment
  ANGPTL4 avg log2FC: −1.48
  CCDC80 avg log2FC: −1.57
  CEMIP avg log2FC: −1.20
  ID1 avg log2FC: −1.07
  IGFBP4 avg log2FC: −1.42
  KRT19 avg log2FC: −1.81
  LDHA avg log2FC: −1.16
  NDRG1 avg log2FC: −1.07
  PABPC1 avg log2FC: −1.11
  PGK1 avg log2FC: −1.04
  RPL41 avg log2FC: −1.09
  RPS29 avg log2FC: −1.10
  RPSA avg log2FC: −1.10
  SERPINB3 avg log2FC: −2.15
  SERPINB4 avg log2FC: −1.25
  SERPINB7 avg log2FC: −1.73
  TGFBI avg log2FC: −2.38
  TPI1 avg log2FC: −1.11
  TUBA1A avg log2FC: −1.02
high-dose treatment
  abundance of CD8 positive cell populations, including Tregs: depletion
Predominantly inhibitory ligand
  PVR (CD155) expression in tumor cells: decreased expression

From patent publication US20260183396A1, “CXCR3 OVEREXPRESSION IN CAR-NK CELLS PRIMES MIGRATION/HOMING INTO THE TUMOR MICROENVIRONMENT” (DANA-FARBER CANCER INSTITUTE, INC., priority 2022, published 2026)
